Converted amounts (≈) assume the structure as drawn. Where two headings read alike, the source gives them in different places. Bounds are passed on as bounds.

Data set [1] can be described thus: Acid resistance (half-life period). Type of data set: physicochemical. The settings on record: acid ph 1.3; Temperature 37° C, pH 1.3; Table 1, cyclopentyl series; read-out: τ1/2 half-life period (acid resistance). How it is done:
(§1) All compounds of this group were prepared in the form of sodium salts. Bactericidal activity, degree of hydrolysis with staphylococc penicillinase and acid resistance of the penicillins were determined.

Data set [2] is described as follows: in vivo. To be noted: mouse, iv.
Data set [3] concerns the target staphylococc penicillinase (Staphylococcus aureus, UniProt P00807). As to the kind of experiment: Hydrolysis/inactivation by staphylococc penicillinase. Type of data set: biochemical. The settings on record: Table 5. How it is done: as §1
The substitution of propoxy radical for iso-radical in this position is not accompanied by areduction of penicillin stability against penicillinase which is not observed in the orto- and para-positions. During the subsequent hours of inactivation the rate of hydrolysis of penicillins slightly increases. However, even when observed in dynamics, their stability against penicillianase still persists during 4-hour-inactivation.

For data set [4], the system named is Myco smegmatis. As to the kind of experiment: Minimal bacteriostatic concentration. Type of data set: cell-based. The settings on record: sodium salts. How it is done: as §1
For data set [5], the system named is Sh.dysenteriae Flexneri. As to the kind of experiment: Minimal bacteriostatic concentration. The settings on record: Shigella dysenteriae, read-out: Minimal Bacteriostatic Concentration. Type of data set: cell-based. The procedure:
as §1

The subject of data set [6] is Staph. aureus 209p (adapted to benzylpenicillin). As to the kind of experiment: Minimal bacteriostatic concentration. To be noted: Staphylococcus aureus, read-out: Minimal Bacteriostatic Concentration. Type of data set: cell-based. How it is done:
as §1

Data set [7] concerns Prot.vulgaris. As to the kind of experiment: Minimal bacteriostatic concentration. Type of data set: cell-based. The settings on record: Proteus vulgaris, sodium salts. The procedure:
as §1

Data set [8] has as its system Ps.aeruginosa. As to the kind of experiment: Minimal bacteriostatic concentration. Type of data set: cell-based. The settings on record: Pseudomonas aeruginosa, sodium salts. The procedure:
as §1

Data set [9] deals with B.Subtitis ATCC6633. As to the kind of experiment: Minimal bacteriostatic concentration. The format is cell-based. The settings on record: sodium salts. How it is done: as §1
Data set [10] deals with Strept. pyrogenes. As to the kind of experiment: Minimal bacteriostatic concentration. Type of data set: cell-based. The settings on record: sodium salts. How it is done: as §1
The test system of data set [11] is Staph. albus. As to the kind of experiment: Minimal bacteriostatic concentration. Type of data set: cell-based. To be noted: sodium salts. How it is done: as §1
Data set [12] deals with E.coli O-55. As to the kind of experiment: Minimal bacteriostatic concentration. Type of data set: cell-based. To be noted: Escherichia coli. The procedure: as §1
For data set [13], the system named is E.typhi. As to the kind of experiment: Minimal bacteriostatic concentration. To be noted: read-out: Minimal Bacteriostatic Concentration. The format is cell-based. The procedure: as §1
Data set [14] deals with Staph. aureus 209p. As to the kind of experiment: Minimal bacteriostatic concentration. Type of data set: cell-based. To be noted: Staphylococcus aureus, sodium salts. The procedure: as §1
The test system of data set [15] is Vibrion Metschnicoff. As to the kind of experiment: Minimal bacteriostatic concentration. Type of data set: cell-based. To be noted: Vibrion Metschnicoff; sodium salts; read-out: Minimal Bacteriostatic Concentration. The procedure: as §1
[16] abbreviates: O55, E.coli O-55, sodium salts, read-out: Minimal Bacteriostatic Concentration.
The mark [17] stands for this setting: O55, read-out: Minimal Bacteriostatic Concentration.

Chain of staphylococc penicillinase (P00807 25-281): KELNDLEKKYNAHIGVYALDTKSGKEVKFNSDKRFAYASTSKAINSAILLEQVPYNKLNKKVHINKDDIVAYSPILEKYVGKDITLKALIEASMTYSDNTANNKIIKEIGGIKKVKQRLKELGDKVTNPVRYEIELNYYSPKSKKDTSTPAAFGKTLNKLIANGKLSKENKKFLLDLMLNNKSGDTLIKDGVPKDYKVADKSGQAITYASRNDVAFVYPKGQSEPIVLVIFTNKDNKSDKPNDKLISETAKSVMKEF

Regarding `COc1ccccc1C1(C(=O)NC2C(=O)N3C2SC(C)(C)C3C(=O)O)CCCC1` (stereo not drawn) [Compound II (Table 1)], in data set [1], the half-life was found to be 3.12 h. Also, the MTD in data set [2] worked out at 2000 mg/kg. For the same compound, in [3], the “Quantity of inactivated units of compounds under the action of 1 unit of staphylococc penicillinase” value (“Quantity” below) was determined as 28.8 units. The MIC in [4] is above 500 µg/mL; in data set [5], 62.5 µg/mL (≈ 149 µM); in data set [6], above 500 µg/mL; in data set [7], 500 µg/mL; in data set [8], above 500 µg/mL; in data set [9], 3.9 µg/mL. The MIC was determined as 0.78 µg/mL in [10]; 0.9 µg/mL in data set [11]; 250 µg/mL in data set [12] (setting [16]); 62.5 µg/mL (≈ 149 µM) in data set [13]; 0.9 µg/mL in [14].

Consider `COc1cccc(C2(C(=O)NC3C(=O)N4C3SC(C)(C)C4C(=O)O)CCCC2)c1` (stereo not drawn) [Compound VII (Table 1)], for which, in [1], the half-life stood at 4.8 h. Moreover, in data set [2], the MTD is 2500 mg/kg. Moreover, the “Quantity” value in [3] came out at 14.2 units. In addition, the MIC in [4] is above 500 µg/mL; in data set [5], 125 µg/mL (≈ 299 µM); in data set [6], above 500 µg/mL; in data set [7] it was 125 µg/mL; in [8], above 500 µg/mL; in data set [9] it was 1.56 µg/mL. Moreover, the MIC in data set [10] was 0.39 µg/mL; in [11] it was 0.39 µg/mL; in data set [12] (setting [16]), 250 µg/mL; in data set [14], 0.39 µg/mL.

With `CCCOc1ccc(C2(C(=O)NC3C(=O)N4C3SC(C)(C)C4C(=O)O)CCCC2)cc1` (stereo not drawn) [Compound XIV (Table 1)], the half-life in data set [1] was 1.48 h. Moreover, the MTD in [2] worked out at 1500 mg/kg. Also, the “Quantity” value in data set [3] was 10.4 units. Further, the MIC was above 500 µg/mL in [4]; 31.2 µg/mL (≈ 69.9 µM) in [5]; 62.5 µg/mL in data set [7]; above 500 µg/mL in [8]; 0.24 µg/mL in data set [9]; 0.048 µg/mL in [10]. Further, the MIC in data set [11] worked out at 0.09 µg/mL; in data set [12] (setting [17]), 125 µg/mL (≈ 280 µM); in data set [15], 0.9 µg/mL; in data set [13] it was 7.8 µg/mL (≈ 17.5 µM); in data set [14], 0.39 µg/mL.

Take `CC(C)Oc1ccc(C2(C(=O)NC3C(=O)N4C3SC(C)(C)C4C(=O)O)CCCC2)cc1` (stereo not drawn) [Compound XV (Table 1)]: in data set [1], the half-life was determined as 2.67 h. The MTD in data set [2] turned out to be 1500 mg/kg. For the same compound, the “Quantity” value in [3] stood at 9.4 units. Moreover, the MIC was above 500 µg/mL in [4]; 31.2 µg/mL (≈ 69.9 µM) in data set [5]; 62.5 µg/mL in [7]; above 500 µg/mL in data set [8]; 0.24 µg/mL in data set [9]; 0.09 µg/mL in data set [10]. For the same compound, the MIC in data set [11] stood at 0.19 µg/mL; in [12] (setting [17]) it was 25 µg/mL (≈ 56 µM); in data set [15], 0.48 µg/mL; in [13] it was 7.8 µg/mL (≈ 17.5 µM); in [14] it was 0.19 µg/mL.

As to `CCCCOc1ccc(C2(C(=O)NC3C(=O)N4C3SC(C)(C)C4C(=O)O)CCCC2)cc1` (stereo not drawn) [Compound XVI (Table 1)], in [1], the half-life was determined as 0.72 h. The compound also came in with an MTD in data set [2] of 1500 mg/kg. In addition, the “Quantity” value in [3] worked out at 23.3 units. Besides, the MIC in data set [4] was above 500 µg/mL; in data set [5], 62.5 µg/mL (≈ 136 µM); in data set [7], 125 µg/mL; in [8], above 500 µg/mL; in [9] it was 0.24 µg/mL; in data set [10], 0.048 µg/mL. Besides, the MIC worked out at 0.19 µg/mL in data set [11]; 125 µg/mL (≈ 271 µM) in data set [12] (setting [17]); 0.48 µg/mL in data set [15]; 15.6 µg/mL (≈ 33.9 µM) in data set [13]; 0.39 µg/mL in data set [14].
